The results in this text go back to patent US8158623B2, “Heptacyclic compounds and the pharmaceutical uses thereof for preventing and treating diabetes and metabolic syndrome” (Shanghai Institute of Materia Medica Chinese Academy of …, priority 2007, dated 2012).

For this assay, the system named is 3T3-L1 adipocytes. The assay is described as follows: Glucose uptake in 3T3-L1 adipocytes (3H-labelled 2-deoxyglucose). It is filed as cell-based. The method in brief: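 Differentiated 3T3-L1 adipocytes treated with compound at 10 μM for 2 h, with or without insulin. Baseline and insulin-stimulated uptake measured as intracellular 3H-labelled 2-deoxyglucose; increase calculated relative to 0.1% DMSO control.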

As to `COc1cc(C(=O)O)c2c(c1C)OC(=O)c1c(C)cc(O)c(C=O)c1O2` [Compound F7, 4-Formyl-3-hydroxy-8-methoxy-1,9-dimethyl-11-oxo-11H-dibenzo[b,e][1,4]dioxepine-6-carboxylic acid], the “Glucose uptake, Mean, Compound + Insulin Group (Control Group = 1.000)” value (10 μM, 2 h incubation, with insulin, relative to control without insulin) was 3.788. The fold induction at 10 µM (Mus musculus, 3T3-L1, 2 h incubation, baseline (without insulin), relative to control, read-out: Glucose uptake, Mean, Compound Group (Control Group = 1.000)) was determined as 1.19.
